Data on 24 compounds can be found in patent publication US20230121721A1, “MONOACYLGLYCEROL LIPASE INHIBITORS” (STICHTING HET NEDERLANDS KANKER INSTITUUT - ANTONI VAN …, priority 2020, published 2023).

The target of this assay is T1, hMAGL (MAGL-overexpressing membrane preparations from transiently transfected HEK293T cells) (Homo sapiens, UniProt Q99685).
T1 construct: expressed in transfected cells; host or cells: HEK293T (transient transfection), membrane preparations
T1 sequence (Q99685 1-303): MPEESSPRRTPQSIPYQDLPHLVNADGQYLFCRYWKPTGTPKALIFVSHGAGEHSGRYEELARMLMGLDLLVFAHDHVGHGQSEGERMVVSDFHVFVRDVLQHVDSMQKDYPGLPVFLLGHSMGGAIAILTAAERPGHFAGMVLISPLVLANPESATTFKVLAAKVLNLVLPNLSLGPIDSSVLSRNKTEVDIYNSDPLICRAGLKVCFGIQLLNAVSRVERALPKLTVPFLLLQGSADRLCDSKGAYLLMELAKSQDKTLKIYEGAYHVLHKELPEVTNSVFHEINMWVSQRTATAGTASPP
The assay can be described thus: MAGL activity assay (2-AG hydrolysis, glycerol coupled to Amplifu Red fluorescence). It counts as biochemical. To be noted: hMAGL-overexpressing HEK293T membranes, 25 μM 2-AG substrate, 20 min. inhibitor incubation. The source says:
The MAGL activity assay is based on the production of glycerol from 2-arachidonoylglycerol (2-AG) hydrolysis by MAGL-overexpressing membrane preparations from transiently transfected HEK293T cells, as previously reported in van der Wel T et al., “A natural substrate-based fluorescence assay for inhibitor screening on diacylglycerol lipase”, J Lipid Res., 2015, 56(4), 927-35. The produced glycerol is coupled to the oxidation of commercially available Amplifu™ Red (Sigma-Aldrich Chemie N.V., Zwijndrecht, Netherlands) via a multi-enzyme cascade, resulting in a fluorescent signal from the dye resorufin.
Standard assays were performed in HEMNB buffer (50 mM HEPES pH 7.4, 1 mM EDTA, 5 mM MgCl2, 100 mM NaCl, 0.5% (w/v) BSA) in black, flat bottom 96-wells plates. Final protein concentration of membrane preparations from overexpressing hMAGL HEK293T cells was 1.5 μg/mL (0.3 μg per well). Inhibitors were added from 40× concentrated DMSO stocks. […] Final assay concentrations: 0.2 U/mL GK, GPO and HRP, 0.125 mM ATP, 10 μM Amplifu™ Red, 25 μM 2-AG, 5% DMSO, 0.5% ACN in a total volume of 200 μL.
For IC50 determination, the MAGL-overexpressing membranes were incubated with different inhibitor concentrations. Slopes of corrected fluorescence in time were determined in the linear interval of t=10 to t=35 min and then scaled to the corrected positive control of hMAGL-overexpressing membranes treated with vehicle (DMSO) as a 100% activity reference point. The data was exported to GraphPad Prism 5.0 and analysed in a non-linear dose-response analysis with variable slope.

In the case of `C[C@H]1[C@H](C)N(c2cccc(Cl)c2)CCN1C(=O)c1ccc([S+]([O-])CC(=O)c2ccccc2)c(Cl)c1` (mixture of isomers) [Example 104, (±) 2-((2-Chloro-4-(4-(3-chlorophenyl)-trans-2,3-dimethylpiperazine-1-carbonyl)phenyl)sulfinyl)-1-phenylethan-1-one], the IC50 is 2290 nM. The same measure for `C[C@H]1[C@H](C)N(c2cccc(Cl)c2)CCN1C(=O)c1ccc([S+]([O-])CC(=O)c2ccc(C#N)cn2)c(Cl)c1` (mixture of isomers) [Example 105, (±) 6-(2-((2-Chloro-4-(4-(3-chlorophenyl)-trans-2,3-dimethylpiperazine-1-carbonyl)phenyl)sulfinyl)acetyl)nicotinonitrile]: 10 nM; for `CCOC(=O)C[S+]([O-])c1ccc(C(=O)N2CCN(c3cccc(Cl)c3)[C@H](C)[C@H]2C)cc1C(F)(F)F` (mixture of isomers) [Example 107, (±) Ethyl 2-((4-(4-(3-chlorophenyl)-trans-2,3-dimethylpiperazine-1-carbonyl)-2-(trifluoromethyl)phenyl)sulfinyl)acetate]: 14.8 nM; for `CCOC(=O)C[S+]([O-])c1ccc(C(=O)N2CCN(c3cccc(C)c3)[C@@H](C)C2)cc1[N+](=O)[O-]` (stereo partly drawn) [Example 2, Ethyl 2-((4-((S)-3-methyl-4-(m-tolyl)piperazine-1-carbonyl)-2-nitrophenyl)sulfinyl)acetate]: 269 nM.

With `CCOC(=O)C[S+]([O-])c1ccc(C(=O)N2CCN(c3cccc(C)c3)[C@H](C)C2)cc1[N+](=O)[O-]` (stereo partly drawn) [Example 3, Ethyl 2-((4-((R)-3-methyl-4-(m-tolyl)piperazine-1-carbonyl)-2-nitrophenyl)sulfinyl)acetate], inhibition was half-maximal at 195 nM (IC50). The same measure for `CCOC(=O)CSc1ccc(C(=O)N2CCN(c3cccc(C)c3)[C@@H](C)C2)cc1[N+](=O)[O-]` [Example 5, Ethyl (S)-2-((4-(3-methyl-4-(m-tolyl)piperazine-1-carbonyl)-2-nitrophenyl)thio)acetate]: above 10000 nM. With `CCOC(=O)CS(=O)(=O)c1ccc(C(=O)N2CCN(c3cccc(C)c3)[C@@H](C)C2)cc1[N+](=O)[O-]` [Example 6, Ethyl (S)-2-((4-(3-methyl-4-(m-tolyl)piperazine-1-carbonyl)-2-nitrophenyl)sulfonyl)acetate] the figure was above 10000 nM. With `CCOC(=O)C[S+]([O-])c1ccc(C(=O)N2CCN(c3cccc(C)c3)[C@@H](C)C2)cc1` (stereo partly drawn) [Example 7, Ethyl 2-((4-((S)-3-methyl-4-(m-tolyl)piperazine-1-carbonyl)phenyl)sulfinyl)acetate] the figure was 5620 nM. In turn, `CCOC(=O)C[S+]([O-])c1ccc(C(=O)N2CCN(c3cccc(F)c3)CC2)cc1[N+](=O)[O-]` (stereo not drawn) [Example 9, Ethyl 2-((4-(4-(3-fluorophenyl)piperazine-1-carbonyl)-2-nitrophenyl)sulfinyl)acetate] showed an IC50 of 631 nM. Compared with the last compound, the IC50 is about 8.9-fold lower.

`CCOC(=O)C[S+]([O-])c1ccc(C(=O)N2CCN(c3ccc(C(F)(F)F)cc3)CC2)cc1[N+](=O)[O-]` (stereo not drawn) [Example 16, Ethyl 2-((2-nitro-4-(4-(4-(trifluoromethyl)phenyl)piperazine-1-carbonyl)phenyl)sulfinyl)acetate]: 589 nM corresponded to half-maximal inhibition (IC50). The IC50 values of the last two compounds are within 1.5-fold of each other.

For the compound `CCOC(=O)C[S+]([O-])c1ccc(C(=O)N2CCN(c3cccc([N+](=O)[O-])c3)CC2)cc1[N+](=O)[O-]` (stereo not drawn) [Example 19, Ethyl 2-((2-nitro-4-(4-(3-nitrophenyl)piperazine-1-carbonyl)phenyl)sulfinyl)acetate], half-maximal inhibition (IC50) was put at 2570 nM.

`CCOC(=O)C[S+]([O-])c1ccc(C(=O)N2CCN(c3cccc(-c4ccccc4)c3)CC2)cc1[N+](=O)[O-]` (stereo not drawn) [Example 20, Ethyl 2-((4-(4-([1,1′-biphenyl]-3-yl)piperazine-1-carbonyl)-2-nitrophenyl)sulfinyl)acetate]: the IC50 is 1350 nM. This IC50 lies about 1.9-fold lower than the previous one. The same measure for `CCOC(=O)C[S+]([O-])c1ccc(C(=O)N2CCN(c3ccc(Cl)c(Cl)c3)CC2)cc1[N+](=O)[O-]` (stereo not drawn) [Example 22, Ethyl 2-((4-(4-(3,4-dichlorophenyl)piperazine-1-carbonyl)-2-nitrophenyl)sulfinyl)acetate]: 2570 nM; for `CCOC(=O)C[S+]([O-])c1ccc(C(=O)N2CCN(c3ccc(Cl)cc3Cl)CC2)cc1[N+](=O)[O-]` (stereo not drawn) [Example 23, Ethyl 2-((4-(4-(2,4-dichlorophenyl)piperazine-1-carbonyl)-2-nitrophenyl)sulfinyl)acetate]: 1950 nM.

Consider `CCOC(=O)C[S+]([O-])c1ccc(C(=O)N2CCN(c3c(Cl)cccc3Cl)CC2)cc1[N+](=O)[O-]` (stereo not drawn) [Example 24, Ethyl 2-((4-(4-(2,6-dichlorophenyl)piperazine-1-carbonyl)-2-nitrophenyl)sulfinyl)acetate], for which the IC50 was 1820 nM. This IC50 and that of the compound before are within 1.5-fold of each other. The same measure for `CCOC(=O)C[S+]([O-])c1ccc(C(=O)N2CCN(c3cccc(F)c3)[C@@H](C)C2)cc1[N+](=O)[O-]` (stereo partly drawn) [Example 25, Ethyl 2-((4-((S)-4-(3-fluorophenyl)-3-methylpiperazine-1-carbonyl)-2-nitrophenyl)sulfinyl)acetate]: 155 nM. The same measure for `CCOC(=O)C[S+]([O-])c1ccc(C(=O)N2CCN(c3cccc(C(F)(F)F)c3)[C@H](C)C2)cc1[N+](=O)[O-]` (stereo partly drawn) [Example 30, Ethyl 2-((4-((R)-3-methyl-4-(3-(trifluoromethyl)phenyl)piperazine-1-carbonyl)-2-nitrophenyl)sulfinyl)acetate]: 115 nM.

`CCOC(=O)C[S+]([O-])c1ccc(C(=O)N2CCN(c3cccc(C(F)(F)F)c3)[C@@H](C)C2)cc1[N+](=O)[O-]` (stereo partly drawn) [Example 31, Ethyl 2-((4-((S)-3-methyl-4-(3-(trifluoromethyl)phenyl)piperazine-1-carbonyl)-2-nitrophenyl)sulfinyl)acetate] showed an IC50 of 200 nM. With `CCN(C)C(=O)C[S+]([O-])c1ccc(C(=O)N2CCN(c3cccc(Cl)c3)[C@H](C)C2)cc1[N+](=O)[O-]` (stereo partly drawn) [Example 33, 2-((4-((R)-4-(3-Chlorophenyl)-3-methylpiperazine-1-carbonyl)-2-nitrophenyl)sulfinyl)-N-ethyl-N-methylacetamide] the figure was above 10000 nM.

`C[C@@H]1CN(C(=O)c2ccc([S+]([O-])CC(=O)OCCCO)c([N+](=O)[O-])c2)CCN1c1cccc(Cl)c1` (stereo partly drawn) [Example 41, 3-Hydroxypropyl 2-((4-((R)-4-(3-chlorophenyl)-3-methylpiperazine-1-carbonyl)-2-nitrophenyl)sulfinyl)acetate]: inhibition was half-maximal at 34.7 nM (IC50). With `CCOC(=O)C[S+]([O-])c1ccc(C(=O)N2CCN(c3cccc(Cl)c3)CC2C)cc1F` (stereo not drawn) [Example 44, Ethyl 2-((4-(4-(3-chlorophenyl)-2-methylpiperazine-1-carbonyl)-2-fluorophenyl)sulfinyl)acetate] the figure was 27.5 nM; with `CCOC(=O)C[S+]([O-])c1ccc(C(=O)N2CCN(c3cccc(Cl)c3)C(C)(C)C2)cc1F` (stereo not drawn) [Example 47, Ethyl 2-((4-(4-(3-chlorophenyl)-3,3-dimethylpiperazine-1-carbonyl)-2-fluorophenyl)sulfinyl)acetate], 46.8 nM; with `CCOC(=O)C[S+]([O-])c1ccc(C(=O)N2CCN(c3cccc(Cl)c3)CC2(C)C)cc1F` (stereo not drawn) [Example 48, Ethyl 2-((4-(4-(3-chlorophenyl)-2,2-dimethylpiperazine-1-carbonyl)-2-fluorophenyl)sulfinyl)acetate], 57.5 nM.

In turn, `CCOC(=O)C[S+]([O-])c1c(F)cc(C(=O)N2CCN(c3cccc(Cl)c3)[C@H](C)C2)cc1F` (stereo partly drawn) [Example 106, Ethyl 2-((4-((R)-4-(3-chlorophenyl)-3-methylpiperazine-1-carbonyl)-2,6-difluorophenyl)sulfinyl)acetate] showed a half-inhibitory concentration (IC50) of 282 nM.
